Laboratory results: PMC8490515, “Neuromedin B receptor stimulation of Cav3.2 T-type Ca^2+ channels in primary sensory neurons mediates peripheral pain hypersensitivity” (Theranostics, 2021)

How the values were obtained:
[1] = system: sustained delayed rectifier K^+ channel (IDR); assay: Sustained delayed rectifier K+ currents (IDR) in TG neurons; format: cell-based, mouse; settings: 100 nM
Description: (§1) All the procedures performed in this study were carried out in accordance with NIH guidelines and were approved by the Institutional Animal Care and Use Committee of Soochow University. TG neurons were dissociated as previously described, [23]. Briefly, TGs were harvested from 8- to 10-week-old ICR mice of either sex, cut into small pieces and treated with 2 mg/mL collagenase D (Roche) for 20 min followed by 1.5 mg/mL trypsin (Sigma) at 37 °C for 15 min. Cells were dissociated via gentle trituration with fire-polished sterilized Pasteur pipettes and centrifuged through a 15% BSA gradient to remove debris and nonneuronal cells. TG neurons were resuspended in neurobasal A (Thermo Fisher) supplemented with B27 (Thermo Fisher) and transferred onto Matrigel-coated coverslips. Patch clamp recordings were conducted 2 to 6 h after plating. In shRNA-treated knockdown experiments, TG cells were replated onto coverslips 48 h after infection.
(§2) Standard whole-cell recordings were made at room temperature (22-23 °C) as described previously, [25]. Recording electrodes were pulled from borosilicate glass microcapillary tubes (Sutter Instruments) and had resistances from 3 to 5 MΩ when filled with internal solution. Recordings were obtained using a MultiClamp 700B amplifier (Axon Instruments). […]

[2] = system: mechanical hypersensitivity in mice; assay: Orofacial stimulation (operant) test, total contact time; format: in vivo, mouse; settings: 1 h after intra-TG 1 nmol Nmb
Description: Mice were housed on a 12 h light/dark cycle, maintained in a humidity- and temperature-controlled room with water available ad libitum and were acclimated to the experimenter for 2 d before the first behavioural observations. Experimenters were blinded to the treatment or genotypes of the mice. As described previously, [31], an Orofacial Stimulation Test (Ugo Basile, Italy) was used for the measurement of hypersensitivity to the mechanical stimulation of the trigeminal area. Briefly, the mice initially underwent one week of adaptation trainings after a 12 h fasting food period. Each mouse was then placed in a cage in which there was an Orofacial Stimulation Test system. […] The contact number and total duration of time the mouse spent acquiring the reward were analyzed with the ORO software.
For experiments that several time points are needed to be checked in 24 h, von Frey test was used, as orofacial stimulation test can be checked only once a day, [32]. […] Mechanical hypersensitivity was assessed as described in previous studies, [33]. In brief, the threshold was assessed with a set of von Frey hairs (0.02-2.56 g, Stoelting) applied to the whisker pad in an ascending series of trials, with three separate von Frey stimulations applied per series. The threshold was determined when mice moved their heads away briskly and strongly from at least one of the three stimuli. […]

[3] = system: phosphorylated AMPK (p-AMPK); assay: Western blot of phosphorylated AMPK in TG cells; format: cell-based, mouse; settings: Nmb exposure (100 nM) in TG cells
[4] = system: high-voltage activated (HVA) Ca^2+ channels, L-type; assay: HVA / L-type Ca2+ channel currents in TG neurons; format: cell-based, mouse
Description: as §1, §2

[5] = system: mechanical hypersensitivity in mice; assay: von Frey test after intra-TG injection of Nmb; format: in vivo, mouse
Description: Mice were housed on a 12 h light/dark cycle, maintained in a humidity- and temperature-controlled room with water available ad libitum and were acclimated to the experimenter for 2 d before the first behavioural observations. Experimenters were blinded to the treatment or genotypes of the mice. As described previously, [31], an Orofacial Stimulation Test (Ugo Basile, Italy) was used for the measurement of hypersensitivity to the mechanical stimulation of the trigeminal area. Briefly, the mice initially underwent one week of adaptation trainings after a 12 h fasting food period. Each mouse was then placed in a cage in which there was an Orofacial Stimulation Test system. After the mouse was given 10 min to familiarize itself with its environment, the drinking window was opened and the testing mouse was subsequently timed for 10 min to allow drinking the milk. The contact number and total duration of time the mouse spent acquiring the reward were analyzed with the ORO software.
For experiments that several time points are needed to be checked in 24 h, von Frey test was used, as orofacial stimulation test can be checked only once a day, [32]. For the von Frey test, the mice were placed in metal mesh boxes and allowed 30 min for habituation before examination. Mechanical hypersensitivity was assessed as described in previous studies, [33]. In brief, the threshold was assessed with a set of von Frey hairs (0.02-2.56 g, Stoelting) applied to the whisker pad in an ascending series of trials, with three separate von Frey stimulations applied per series. The threshold was determined when mice moved their heads away briskly and strongly from at least one of the three stimuli. Dixon's up-down method was used to determine the 50% probability of escape threshold. For thermal test, a heat stimulus was applied to the maxillary whisker pad skin by radiant heat (IITC Life Science). Heat sensitivity was expressed as head-withdrawal latency (HWL). The radiant heat intensity was adjusted so that basal HWL is between 10-15 s, with a cut-off of 18 s to prevent tissue damage. Chronic inflammatory pain was induced by subcutaneous injection of 20 μL of complete Freund's adjuvant (CFA) into the left side of the buccal pad. The drugs (Nmb, BIM23042, Z941, or TTA-P2) were applied through a percutaneous approach by injecting the TG with a 30 G needle inserted through the infraorbital foramen, infraorbital canal and foramen rotundum. The tip of the needle terminated at the medial part of the TG, and a volume of 5 μL reagent was slowly delivered, [34]. Mice received intra-TG injection of 5'-cholesteryl-modified and 6-FAM-modified Cav3.2 siRNA (Cav3.2-siRNA, 5 μg) or a scrambled negative control siRNA (NC-siRNA) (RiboBio, Guangzhou) 2 d after the CFA injection. siRNA was mixed with polyethyleneimine (PEI, Fermentas Inc.) for 10 min before being delivered. PEI was used as a delivery vehicle to prevent degradation and enhance cell membrane penetration of siRNAs, [36].

Neuromedin B [Nmb]
decrease of IDR [1]: 1.9 ± 1.6% | total contact time [2]: significantly reduced | level of phosphorylated AMPK [3]: markedly increased | decrease of L-type channel currents ([4]; 100 nM): 19.6 ± 2.2% | decrease of remaining HVA Ca2+ channel currents ([4]; 100 nM Nmb with 5 μM nifedipine): 1.3 ± 0.6% | acute mechanical hypersensitivity ([5]; intra-TG 0.1 nmol): no such effects | acute mechanical hypersensitivity ([5]; intra-TG 1 nmol or 5 nmol, n = 6 - 8 mice per group): significantly induced profound hypersensitivity to acute mechanical pain | mechanical hypersensitivity, 5 nmol vs 1 nmol ([5]; intra-TG 5 nmol): stronger effect than that of 1 nmol | onset of mechanical hypersensitivity ([5]; intra-TG 5 nmol): 1 h | recovery from mechanical hypersensitivity ([5]; intra-TG 5 nmol): 6 h | time at which mechanical hypersensitivity was maintained ([5]; intra-TG 5 nmol): 3 h
